Consider two compounds from PMC8585037 (International Journal of Molecular Sciences, 2021).

The structures appear in SMILES notation. “And” between values parts separate entries of the source, which are not always exact repeats. Equal values may be shown once.

What is called IC50 is the point on the concentration scale where inhibition reaches its midpoint. A word on the half-life: it is the time needed for the level to fall by half in the phase considered. Read a low half-life as fast loss. As usually defined, the Cmax is the highest concentration seen after dosing.

For one series, the system named is C57BL/6J mice. The experiment in a line: Locomotor activity studies in mice. The series is classed as in vivo, mouse. To be noted: for dose giving maximal locomotor effect (Emax): i.p.
The target in a further series is T1, DAT (Rattus norvegicus, UniProt P23977).
T1 construct: Synaptosomes from rat cerebrum were isolated as described by Bogen et al; from tissue; host or cells: rat cerebrum synaptosomes
T1 sequence (P23977 whole entry): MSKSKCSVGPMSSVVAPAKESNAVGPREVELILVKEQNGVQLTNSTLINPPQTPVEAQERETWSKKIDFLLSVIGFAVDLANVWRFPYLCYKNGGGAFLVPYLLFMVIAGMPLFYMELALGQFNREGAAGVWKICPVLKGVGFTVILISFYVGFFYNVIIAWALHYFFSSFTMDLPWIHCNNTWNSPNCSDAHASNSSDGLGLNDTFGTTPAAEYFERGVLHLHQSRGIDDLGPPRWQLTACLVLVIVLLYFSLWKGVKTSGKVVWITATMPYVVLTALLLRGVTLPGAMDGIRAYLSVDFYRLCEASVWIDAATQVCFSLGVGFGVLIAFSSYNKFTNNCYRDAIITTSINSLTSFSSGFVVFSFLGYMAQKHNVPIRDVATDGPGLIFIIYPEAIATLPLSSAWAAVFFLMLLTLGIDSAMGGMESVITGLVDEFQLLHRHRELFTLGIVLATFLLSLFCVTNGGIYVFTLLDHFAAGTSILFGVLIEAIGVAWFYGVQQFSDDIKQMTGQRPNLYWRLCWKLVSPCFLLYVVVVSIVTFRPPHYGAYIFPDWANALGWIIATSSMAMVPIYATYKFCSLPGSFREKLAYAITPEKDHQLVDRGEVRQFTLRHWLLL
The experiment in a line: Synaptosomal uptake of [3H]DA in rat brain synaptosomes. The format is biochemical.

A further series deals with T2, NET (Rattus norvegicus, UniProt Q63380).
T2 construct: Synaptosomes from rat cerebrum were isolated as described by Bogen et al; from tissue; host or cells: rat cerebrum synaptosomes
T2 sequence (Q63380 1-617): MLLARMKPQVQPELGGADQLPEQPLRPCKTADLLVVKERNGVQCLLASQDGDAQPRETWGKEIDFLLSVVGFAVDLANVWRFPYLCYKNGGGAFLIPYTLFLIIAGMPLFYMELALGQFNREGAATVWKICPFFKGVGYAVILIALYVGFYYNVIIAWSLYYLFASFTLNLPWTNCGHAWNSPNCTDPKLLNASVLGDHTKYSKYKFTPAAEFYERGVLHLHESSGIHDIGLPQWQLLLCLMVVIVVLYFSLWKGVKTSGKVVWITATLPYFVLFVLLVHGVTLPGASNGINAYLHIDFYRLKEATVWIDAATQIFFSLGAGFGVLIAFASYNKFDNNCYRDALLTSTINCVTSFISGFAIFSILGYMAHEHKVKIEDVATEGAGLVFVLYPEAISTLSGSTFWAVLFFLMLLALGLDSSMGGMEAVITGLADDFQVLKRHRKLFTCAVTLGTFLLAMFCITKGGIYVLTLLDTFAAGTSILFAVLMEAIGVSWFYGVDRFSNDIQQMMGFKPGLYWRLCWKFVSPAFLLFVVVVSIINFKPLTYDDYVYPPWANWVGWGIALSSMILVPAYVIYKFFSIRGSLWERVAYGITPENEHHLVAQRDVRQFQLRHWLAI
The experiment in a line: Synaptosomal uptake of [3H]NE in rat brain synaptosomes. The series is classed as biochemical.

For the next series, the target named is T3, SERT (Rattus norvegicus, UniProt P31652).
T3 construct: Synaptosomes from rat cerebrum were isolated as described by Bogen et al; from tissue; host or cells: rat cerebrum synaptosomes
T3 sequence (P31652 whole entry): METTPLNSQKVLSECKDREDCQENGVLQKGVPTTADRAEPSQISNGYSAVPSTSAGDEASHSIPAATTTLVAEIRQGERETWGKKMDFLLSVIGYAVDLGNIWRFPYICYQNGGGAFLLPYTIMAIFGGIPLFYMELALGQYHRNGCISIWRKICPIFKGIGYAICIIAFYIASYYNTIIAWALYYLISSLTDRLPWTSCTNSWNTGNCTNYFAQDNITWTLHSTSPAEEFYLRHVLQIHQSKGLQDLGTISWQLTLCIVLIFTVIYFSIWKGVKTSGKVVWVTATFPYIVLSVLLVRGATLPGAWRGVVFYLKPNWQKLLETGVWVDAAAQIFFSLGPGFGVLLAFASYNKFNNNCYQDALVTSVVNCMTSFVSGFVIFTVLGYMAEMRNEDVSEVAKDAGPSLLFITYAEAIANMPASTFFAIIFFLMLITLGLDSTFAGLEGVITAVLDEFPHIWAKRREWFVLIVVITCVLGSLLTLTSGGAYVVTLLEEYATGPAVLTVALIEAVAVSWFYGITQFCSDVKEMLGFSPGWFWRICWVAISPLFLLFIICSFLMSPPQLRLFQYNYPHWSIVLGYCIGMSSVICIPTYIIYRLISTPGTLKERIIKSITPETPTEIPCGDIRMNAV
Nature of the series: Synaptosomal uptake of [3H]5-HT in rat brain synaptosomes. The format is biochemical. To be noted: IC50 Synaptosomes [3H]5-HT Uptake via SERT.

For a further series, the target named is T4, VMAT2 (Rattus norvegicus, UniProt Q01827).
T4 construct: Synaptic vesicles from rat cerebrum were isolated as described previously; from tissue; host or cells: rat cerebrum synaptic vesicles
T4 sequence (Q01827 whole entry): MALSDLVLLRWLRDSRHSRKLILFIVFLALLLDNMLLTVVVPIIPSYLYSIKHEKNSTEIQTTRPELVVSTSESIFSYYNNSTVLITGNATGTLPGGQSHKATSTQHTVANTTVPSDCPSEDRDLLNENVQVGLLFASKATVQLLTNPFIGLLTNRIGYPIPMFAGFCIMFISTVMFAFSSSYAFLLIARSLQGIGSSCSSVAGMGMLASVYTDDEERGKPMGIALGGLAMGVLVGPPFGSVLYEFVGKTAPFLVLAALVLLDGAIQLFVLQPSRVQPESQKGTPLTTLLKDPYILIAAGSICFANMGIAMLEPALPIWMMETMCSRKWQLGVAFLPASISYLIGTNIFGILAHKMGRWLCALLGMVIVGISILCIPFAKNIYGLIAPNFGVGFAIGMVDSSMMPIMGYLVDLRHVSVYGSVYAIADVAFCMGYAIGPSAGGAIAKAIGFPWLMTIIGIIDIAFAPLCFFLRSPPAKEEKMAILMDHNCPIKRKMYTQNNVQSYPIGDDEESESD
The experiment in a line: Vesicular uptake of [3H]DA, [3H]NE and [3H]5-HT in rat brain synaptic vesicles. The series is classed as biochemical.

In the next series the test system is Sprague-Dawley rats. Also on record: method as in PMID 27265782. To be noted: i.p.; cited from earlier work.
In series [1] the test system is CD-1 mice. Also on record: method as in PMID 32356113, PMID 33770233. To be noted: i.p.; cited from earlier work.
For series [2], the system named is CD-1 mice. To be noted: chronic exposure, 10 mg/kg/day for 30 days; cited from earlier work.
For series [3] the following is noted: cited from earlier work.
A short description of series [4]: Pharmacokinetic studies: drug concentrations in mouse blood and brain tissue. To be noted: for half-life / Cmax: C57BL/6, mouse, ip.
In series [5] the test system is DA, 3-MT, DOPAC, 5-HT and 5-HIAA in dorsal striatum and nucleus accumbens. The experiment in a line: Neurotransmitter and metabolite concentrations in post-mortem mouse brain tissue. The format is in vivo. To be noted: 20 min after 3.75 mg/kg i.p.
The subject of a further series is vesicular DA uptake. Also on record: method as in PMID 16835371. To be noted: cited from earlier work.
The mark [6] stands for this setting: mouse, single i.p. injection of 3.75 mg/kg methamphetamine.

With `CNC(C)Cc1cccs1` (stereo not shown) [methiopropamine, 1-(thiophen-2-yl)-2-methylaminopropane], the “peak effect (Emax), maximum run distance per 5 min interval” value in the series with C57BL/6J mice ([…] i.p., C57BL/6 mice) worked out at 2037 ± 127 cm/5 min. Besides, the “dose giving maximal locomotor effect (Emax)” value in the series with C57BL/6J mice (C57BL/6 mice) was found to be 12.5 mg/kg. Moreover, the sudden deaths entry with C57BL/6J mice (mouse, in vivo) is on record as “did not observe any sudden deaths”; with CD-1 mice [2] it was 70 % deaths. The concentration for half-maximal inhibition (IC50) against DAT is 0.74 ± 0.09 µM; at NET it was 0.47 ± 0.06 µM; at SERT, 25.1 ± 2.91 µM; against VMAT2 (IC50 Synaptic Vesicles [3H]5-HT Uptake via VMAT2, rat brain synaptic vesicles) it was 48.9 ± 5.02 µM; on VMAT2 (IC50 Synaptic Vesicles [3H]DA Uptake via VMAT2, rat brain synaptic vesicles), 33.8 µM; against VMAT2 (IC50 Synaptic Vesicles [3H]NE Uptake via VMAT2, rat brain synaptic vesicles), 47 ± 8.01 µM. Besides, the IC50 on VMAT2 (IC50 vesicular uptake of DA, NE and 5-HT (span over the three substrates), rat brain synaptic vesicles) is 34 to 49 µM and > 25 µM and 10 to 50 µM. The “potency, fold weaker compared with methamphetamine” value on DAT (DA, NE and 5-HT transporters) is on record as “approximately 5 ×”. In addition, the “dose with significant increase in locomotor activity” value in the series with Sprague-Dawley rats is listed as 5 mg/kg; with CD-1 mice [1] it was 10 mg/kg. Further, in series [3] (fatal case of isolated methiopropamine use), the “peripheral postmortem blood concentration” value is listed as 38 µg/mL. The blood concentration in [3] (fatal intoxication case) is listed as 245 µM. The “brain:blood ratios, comparison of the two drugs” value in [4] (5, 30 and 60 min after injection, […] methiopropamine vs 3.75 mg/kg methamphetamine, p > 0.05) was “no significant differences”. Moreover, the half-life was around 30 min in series [4] (blood and brain, […]); around 35 min in series [4] (brain, […]); around 31 min in [4] (whole blood, […]).

As to `CN[C@@H](C)Cc1ccccc1` [methamphetamine], the “Emax, maximum run distance per 5 min interval” value in the series on C57BL/6J mice (3.75 mg/kg i.p., C57BL/6 mice) is on record as 1312 ± 126 cm. Further, in the series on C57BL/6J mice (3.75 mg/kg i.p., C57BL/6 mice), the “maximum total locomotor activity (total run distance during 240 min session)” value was 24,401 ± 2043 cm. Further, the “dose giving maximal locomotor effect (Emax)” value in the series on C57BL/6J mice (C57BL/6 mice) is listed as 3.75 mg/kg. In addition, the IC50 against DAT was 0.14 ± 0.01 µM; in the series on vesicular DA uptake, 9.1 µM. The 3-MT concentration is reported as 3.6 ± 0.7 nmol/g in series [5] (Dorsal Striatum) and 3.5 ± 1.0 nmol/g in [5] (Nucleus Accumbens). The 5-HT concentration in series [5] (Dorsal Striatum) was 2.0 ± 0.3 nmol/g; in series [5] (Nucleus Accumbens), 6.1 ± 0.8 nmol/g. For the same compound, the DA concentration amounted to 107.4 ± 21.1 nmol/g in [5] (Dorsal Striatum) and 82.2 ± 10.5 nmol/g in series [5] (Nucleus Accumbens). In addition, the half-life in series [4] (brain, 3.75 mg/kg) is around 45 min; in [4] (whole blood, 3.75 mg/kg), around 36 min. The Cmax was found to be 4110 ± 150 ng/g in [4] (brain, 3.75 mg/kg, Cmax in brain, mouse, single i.p. injection of 3.75 mg/kg methamphetamine) and 910 ± 80 ng/mL in series [4] (whole blood, 3.75 mg/kg, Cmax in blood, mouse, single i.p. injection of 3.75 mg/kg methamphetamine). Moreover, the “time of Cmax in blood” value in [4] (setting [6]) is recorded as 5 min. For the same compound, the “time of Cmax in brain” value in series [4] (setting [6]) amounted to 20 min.
